Experimental data as given in ChEMBL document CHEMBL1781900, “Synthesis and peptide incorporation of an unnatural amino acid containing activity-based probe for protein tyrosine phosphatases” (Bioorg Med Chem Lett, 2009).
Where a chain is given by its changes, count along the chain named. Calls of active or inactive are those of the source. No cut-off for these calls is given here.

Experiments:
Escherichia coli [1] = assay: Binding affinity to PTP1B in Escherichia coli lysate at 0.8 mM after 1 hr by Western blotting analysis
[2] = biological target: T1, Tyrosine-protein phosphatase non-receptor type 1 (Homo sapiens) (UniProt P18031); assay: Binding affinity to purified recombinant PTP1B using streptaive HRP at 20 uM after 1 hr by Western blotting analysis
T1 sequence (whole entry): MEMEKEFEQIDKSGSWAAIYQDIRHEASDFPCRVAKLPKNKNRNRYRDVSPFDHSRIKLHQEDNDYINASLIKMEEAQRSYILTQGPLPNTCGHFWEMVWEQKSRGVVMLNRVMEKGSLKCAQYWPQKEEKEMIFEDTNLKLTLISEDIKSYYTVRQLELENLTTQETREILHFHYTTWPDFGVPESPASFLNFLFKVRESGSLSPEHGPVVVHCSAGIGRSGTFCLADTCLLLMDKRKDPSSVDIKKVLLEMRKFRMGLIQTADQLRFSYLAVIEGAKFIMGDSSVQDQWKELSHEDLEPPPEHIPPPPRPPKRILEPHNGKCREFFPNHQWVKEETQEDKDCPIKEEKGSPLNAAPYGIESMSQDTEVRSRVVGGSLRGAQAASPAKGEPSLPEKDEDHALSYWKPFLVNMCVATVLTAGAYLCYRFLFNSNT

Jurkat = assay: Binding affinity to PTP1B in human Jurkat cell lysate at 0.8 mM after 1 hr by Western blotting analysis in presence of alpha-bromobenzylphosphonate; assay type: cell-free
[3] = biological target: T1, Tyrosine-protein phosphatase non-receptor type 1 (Homo sapiens); assay: Binding affinity to purified recombinant PTP1B using streptaive HRP at 200 uM after 1 hr by Western blotting analysis
[4] = biological target: Protein tyrosine phosphatase type IVA 3 (Homo sapiens) (UniProt O75365); assay: Binding affinity to purified recombinant PTP4A3 using streptaive HRP at 200 uM by Western blotting analysis
Escherichia coli [5] = assay: Binding affinity to PTP4A3 in Escherichia coli lysate at 0.8 mM after 1 hr by Western blotting analysis in presence of alpha-bromobenzylphosphonate
[6] = biological target: Protein tyrosine phosphatase type IVA 3 (Homo sapiens) (UniProt O75365); assay: Binding affinity to purified recombinant PTP4A3 using streptaive HRP at 20 uM after 1 hr by Western blotting analysis
[7] = system: T2, Tyrosine-protein phosphatase non-receptor type 1 (Homo sapiens), P18031 [C215S]; assay: Binding affinity to purified recombinant dPTP1B C215S mutant using streptaive HRP at 200 uM after 1 hr by Western blotting analysis
T2 sequence (whole entry): T1 sequence (whole entry) with C215S

Chain of Protein tyrosine phosphatase type IVA 3 (Homo sapiens) (O75365 whole entry): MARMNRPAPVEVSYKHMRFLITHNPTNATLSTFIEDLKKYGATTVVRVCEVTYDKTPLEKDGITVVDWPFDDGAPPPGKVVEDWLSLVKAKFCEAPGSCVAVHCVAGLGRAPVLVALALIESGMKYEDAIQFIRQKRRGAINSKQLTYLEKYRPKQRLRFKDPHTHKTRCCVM

Activity (Escherichia coli [1]): Active
Activity [2]: Active
Activity [3]: Active
Activity [4]: Active
Activity (Escherichia coli [5]): Active
Activity [6]: inactive
Activity [7]: inactive
Structure (SMILES): NC(=O)[C@H](Cc1ccc(OP(=O)(O)O)c(C(F)F)c1)NC(=O)[C@H](CC(=O)O)NC(=O)Cc1ccc(C(F)(F)P(=O)(O)O)cc1
Activity (Jurkat): Active
